In article PMC8380238, “Structure-based virtual screening of CYP1A1 inhibitors: towards rapid tier-one assessment of potential developmental toxicants” (Archives of Toxicology, 2021):
Counter-ions that a name gives are not always drawn. Like-named read-outs stand apart in the source and are kept apart here.

What was measured:
[1] = test system: human CYP1A1; design: unit not given beside the values; conditions: cited from earlier work
[2] = molecular target: T1, human recombinant CYP1A1 (rCYP1A1) (Homo sapiens, UniProt P04798); test: CYP1A1 activity assay: inhibition of CEC metabolism (IC50)
T1 sequence (P04798 1-512): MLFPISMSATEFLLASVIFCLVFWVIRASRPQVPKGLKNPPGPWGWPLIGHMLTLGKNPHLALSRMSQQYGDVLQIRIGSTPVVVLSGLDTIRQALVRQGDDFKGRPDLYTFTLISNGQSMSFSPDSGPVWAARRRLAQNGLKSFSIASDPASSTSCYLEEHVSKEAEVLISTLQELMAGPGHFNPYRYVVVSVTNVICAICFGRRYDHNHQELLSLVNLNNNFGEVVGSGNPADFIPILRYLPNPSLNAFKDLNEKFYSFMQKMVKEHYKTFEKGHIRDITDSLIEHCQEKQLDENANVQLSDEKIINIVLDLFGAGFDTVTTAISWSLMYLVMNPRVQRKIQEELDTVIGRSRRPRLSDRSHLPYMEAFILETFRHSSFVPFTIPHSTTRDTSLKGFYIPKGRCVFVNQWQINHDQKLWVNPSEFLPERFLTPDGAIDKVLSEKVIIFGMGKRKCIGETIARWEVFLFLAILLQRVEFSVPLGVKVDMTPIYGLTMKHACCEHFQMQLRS

[3] = molecular target: T1, human recombinant CYP1A1 (rCYP1A1)
[4] = molecular target: T1, human recombinant CYP1A1 (rCYP1A1); test: CYP1A1 activity assay repeated at six CEC concentrations (Ki, α, mode of inhibition)
[5] = CYP1A1 IC50 (range of colour key, Fig. 5a)

Row | Compound | AC50 [1] | other results
1 | CCOP(=S)(OCC)Oc1ccc2c(C)c(Cl)c(=O)oc2c1 [Coumaphos] | -0.5619 | 
2 | COP(=S)(OC)SCN1C(=O)c2ccccc2C1=O [Phosmet] | 0.5339 | 
3 | CCNc1nc(Cl)nc(NCC)n1 [Simazine] | 0.05448 | 
4 | CON(C)C(=O)Nc1ccc(Cl)c(Cl)c1 [Linuron] | 0.4776 | 
5 | COC(=O)[C@H]1[C@H]2C[C@@H]3c4[nH]c5cc(OC)ccc5c4CCN3C[C@H]2C[C@@H](OC(=O)c2cc(OC)c(OC)c(OC)c2)[C@@H]1OC [Reserpine] | -0.938 | 
6 | CN(C)c1ccc(Cc2ccc(N(C)C)cc2)cc1 [4,4'-Methylenebis(N,N-dimethylaniline)] | 0.5763 | 
7 | CC(=O)O[C@]1(C(C)=O)CC[C@H]2[C@@H]3C=C(Cl)C4=CC(=O)[C@@H]5C[C@@H]5[C@]4(C)[C@H]3CC[C@@]21C [Cyproterone acetate, reference compound] |  | IC50 [2, 5]: 1 to 10 µM; IC50 ([2]; IC50): 9.9 µM; MOI (mode of inhibition) [3]: Competitive; α (degree to which the binding of inhibitor changes the affinity of the enzyme for substrate) [4]: 7; Ki ([4]; CYP1A1 Ki (range of colour key, Fig. 5b), range assigned by colour of the point): 1 to 10 µM; Ki ([4]; Ki, CEC 1.56-50.0 µM): 8.8 µM
8 | C=CC(=C)CCC=C(C)C [β-Myrcene] |  | IC50 [2, 5]: 10 to 100 µM; IC50 ([2]; IC50): 52 µM; MOI (mode of inhibition) [3]: Mixed; α (degree to which the binding of inhibitor changes the affinity of the enzyme for substrate) [4]: 3.5; Ki ([4]; CYP1A1 Ki (range of colour key, Fig. 5b)): 10 to 15 µM; Ki ([4]; Ki): 11 µM
9 | Sc1nc2ccccc2s1 [2-Mercaptobenzothiazole] | -0.7864 | 
10 | CC(C)NC(=O)N1CC(=O)N(c2cc(Cl)cc(Cl)c2)C1=O [Iprodione] | 0.8242 | 
11 | CN(C)CCCN1c2ccccc2Sc2ccc(Cl)cc21 [Chlorpromazine hydrochloride] | 0.7565 | 
12 | CC1=C(/C=C/C(C)=C/C=C/C(C)=C/C(=O)O)C(C)(C)CCC1 [all-trans-Retinoic acid] |  | AC50 ([1]; ToxCast NVS_ADME_hCYP1A1, NA = no AC50, ref ToxCast): 0.1194
13 | C=C(C)[C@H]1Cc2c(ccc3c2O[C@@H]2COc4cc(OC)c(OC)cc4[C@@H]2C3=O)O1 [Rotenone] | 0.8835 | 
14 | COc1cc(-c2ccc(N)c(OC)c2)ccc1N [3,3'-Dimethoxybenzidine] | 0.5453 | 
15 | COC(=O)c1c(Cl)c(Cl)c(C(=O)OC)c(Cl)c1Cl [Chlorthal-dimethyl] |  | AC50 ([1]; ToxCast NVS_ADME_hCYP1A1, NA cells left out, ref ToxCast): -0.9489
16 | Oc1ccc(C(c2ccc(O)cc2)C(Cl)(Cl)Cl)cc1 | 0.8687 | 
17 | Oc1ccc2ccc3cccc4ccc1c2c34 [1-Hydroxypyrene] | 0.4188 | 
18 | O=[N+]([O-])C(Br)(CO)CO [Bronopol] | 0.9179 | 
19 | O=C(Nc1ccccc1)c1ccccc1I [Benodanil] | -1.884 | 
20 | C=CCOC(Cn1ccnc1)c1ccc(Cl)cc1Cl (stereo not shown) [Imazalil] | 0.1501 | 
21 | OC(c1ccc(Cl)cc1)(c1cncnc1)c1ccccc1Cl (stereo not shown) [Fenarimol] | 0.89 | 
22 | c1ccc(C(O[C@@H]2CCCN(CCc3ccc4c(c3)OCO4)C2)c2ccccc2)cc1 [Zamifenacin] |  | AC50 ([1]; NVS_ADME_hCYP1A1, values appear to be log10, ref ToxCast): 0.759
23 | Cc1[nH]cnc1C[C@H]1CCc2c(C)c3ccccc3n2C1=O.Cl [Fabesetron hydrochloride] | 0.583 | 
24 | C=CCc1cc(S(=O)(=O)c2ccc(O)c(CC=C)c2)ccc1O | 0.2892 | 

Row | Compound | AC50 [1] | other results
25 | CC(C)(C)C(=O)C(Oc1ccc(Cl)cc1)n1cncn1 (stereo not shown) [Triadimefon] | 0.3192 | 
26 | CC(=O)N1CCN(c2ccc(OCC3COC(Cn4ccnc4)(c4ccc(Cl)cc4Cl)O3)cc2)CC1 (stereo not shown) [Ketoconazole, reference compound] |  | IC50 ([2]; IC50): 0.099 µM; MOI (mode of inhibition) [3]: Noncompetitive; α (degree to which the binding of inhibitor changes the affinity of the enzyme for substrate) [4]: 0.68; Ki ([4]; Ki): 0.11 µM
27 | CN(C)c1ccc(C(=C2C=CC(=[N+](C)C)C=C2)c2ccc(N(C)C)cc2)cc1 [Gentian Violet] | 0.2591 | 
28 | COc1ccc(C(=CC(=O)N2CCOCC2)c2ccc(Cl)cc2)cc1OC [Dimethomorph] | 0.8349 | 
29 | COP(=S)(OC)SCn1nnc2ccccc2c1=O [Azinphos-methyl] | -0.4803 | 
30 | CCNc1nc(Cl)nc(NC(C)C)n1 [Atrazine] | 0.9162 | 
31 | CCNP(=S)(OC)O/C(C)=C/C(=O)OC(C)C (stereo not shown) [Propetamphos] | 0.3484 | 
32 | CC(C)(C#N)c1cc(Cn2cncn2)cc(C(C)(C)C#N)c1 [Anastrozole, reference compound] |  | IC50 [2, 5]: 100 to 1000 µM; IC50 ([2]; IC50): 190 µM
33 | CCOP(=S)(OCC)SCSCC [Phorate] | 0.6456 | 
34 | O=c1[nH]sc2ccccc12 [1,2-Benzisothiazolin-3-one] | 0.7251 | 
35 | CCCCCCCCn1sc(Cl)c(Cl)c1=O [4,5-Dichloro-2-octyl-3(2H)-isothiazolone] | 0.9038 | 
36 | COc1nn(CSP(=S)(OC)OC)c(=O)s1 [Methidathion] | 0.6887 | 
37 | CCCC1COC(Cn2cncn2)(c2ccc(Cl)cc2Cl)O1 (stereo not shown) [Propiconazole] | 0.9547 | 
38 | CC(C)(O)c1coc(S(=O)(=O)NC(=O)Nc2c3c(cc4c2CCC4)CCC3)c1 [CP-456773] | -1.144 | 
39 | C#CC(C)(C)NC(=O)c1cc(Cl)cc(Cl)c1 [Propyzamide] | 0.363 | 
40 | CC#Cc1cc(C)nc(Nc2ccccc2)n1 [Mepanipyrim] | -0.2464 | 
41 | CCCN(CCOc1c(Cl)cc(Cl)cc1Cl)C(=O)n1ccnc1 [Prochloraz] | -0.384 | 
42 | CCCOC/C(=N\c1ccc(Cl)cc1C(F)(F)F)n1ccnc1 [Triflumizole] | 0.6164 | 
43 | CNc1cnn(-c2cccc(C(F)(F)F)c2)c(=O)c1Cl [Norflurazon] | 0.8239 | 
44 | O=C(c1ccc(OCCN2CCCCC2)cc1)c1c(-c2ccc(O)cc2)sc2cc(O)ccc12 [Raloxifene hydrochloride] | 0.811 | 
45 | COc1ccc(-c2ccccc2)cc1NNC(=O)OC(C)C [Bifenazate] | -0.1841 | 
46 | O=C(Nc1ccccc1)Nc1ccnc(Cl)c1 [Forchlorfenuron] | 0.9909 | 
47 | COP(=S)(OC)Oc1ccc([N+](=O)[O-])cc1 [Methyl parathion] | 0.8544 | 
48 | C#CCOC(=O)[C@@H](C)Oc1ccc(Oc2ncc(Cl)cc2F)cc1 [Clodinafop-propargyl] | 0.4557 | 

Row | Compound | AC50 [1] | other results
49 | CCOC(=O)CC(SP(=S)(OC)OC)C(=O)OCC (stereo not shown) [Malathion] | 0.4737 | 
50 | CCCCOCCOCCOCc1cc2c(cc1CCC)OCO2 [Piperonyl butoxide] | 0.8015 | 
51 | CCCCN(CCCC)SN(C)C(=O)Oc1cccc2c1OC(C)(C)C2 [Carbosulfan] | 0.7573 | 
52 | Oc1cc2ccccc2c2ccccc12 [9-Phenanthrol] | 0.7409 | 
53 | Nc1ccc(-c2ccc(N)cc2)cc1 [Benzidine] | 0.5505 | 
54 | CCOP(=S)(OCC)Oc1ccc([N+](=O)[O-])cc1 [Parathion] | 0.5508 | 
55 | CCOP(=S)(OCC)SCn1c(=O)oc2cc(Cl)ccc21 [Phosalone] | -0.311 | 
56 | CCOC(=O)C(Cl)Cc1cc(-n2nc(C)n(C(F)F)c2=O)c(F)cc1Cl (stereo not shown) [Carfentrazone-ethyl] | 0.8125 | 
57 | CC1(C)CCC(=Cc2ccc(Cl)cc2)C1(O)Cn1cncn1 (stereo not shown) [Triticonazole] | -0.101 | 
58 | Nc1cccc2c(N)cccc12 [1,5-Naphthalenediamine] | 0.8388 | 
59 | N#CC(CCc1ccc(Cl)cc1)(Cn1cncn1)c1ccccc1 (stereo not shown) [Fenbuconazole] | -0.05845 | 
60 | CCOP(=O)(NC(C)C)Oc1ccc(SC)c(C)c1 (stereo not shown) [Fenamiphos] | 0.6838 | 
61 | COC(=O)N(OC)c1ccccc1COc1ccn(-c2ccc(Cl)cc2)n1 [Pyraclostrobin] | 0.2248 | 
62 | CS/C(C)=N\OC(=O)N(C)SN(C)C(=O)O/N=C(\C)SC [Thiodicarb] | 0.9955 | 
63 | CSC(C)(C)C=NO [Aldicarb oxime] | 0.7517 | 
64 | C[C@]12CC[C@H](O)CC1=CC[C@@H]1[C@@H]2CC[C@]2(C)C(=O)CC[C@@H]12 [DHEA, dehydroepiandrosterone] |  | IC50 [2, 5]: 100 to 1000 µM; IC50 ([2]; IC50): 130 µM
65 | CC1COC(Cn2cncn2)(c2ccc(Oc3ccc(Cl)cc3)cc2Cl)O1 (stereo not shown) [Difenoconazole] | 0.1639 | 
66 | CSc1nc(NC(C)C)nc(NC(C)C)n1 [Prometryn] | 0.888 | 
67 | c1ccc2[nH]c(-c3cscn3)nc2c1 [Thiabendazole] | 0.674 | 
68 | Oc1ccc2c(c1)-c1ccccc1C2 [3-Hydroxyfluorene] | 0.7484 | 
69 | O=[N+]([O-])c1c(Cl)c(Cl)c(Cl)c(Cl)c1Cl [Pentachloronitrobenzene] | -0.9415 | 
70 | Cc1cc(N=Nc2ccccc2C)ccc1N [2-Amino-5-azotoluene] | 0.8236 | 
71 | C[C@]12CC[C@@H]3c4ccc(O)cc4CC[C@H]3[C@@H]1[C@@H](O)[C@@H](O)[C@@H]2O [Estetrol] |  | IC50 ([2]; CYP1A1 IC50 (range of colour key, Fig. 5a), 5 µM CEC, range assigned by colour of the point): 100 to 1000 µM; IC50 ([2]; IC50, 5 µM CEC, maximum tested concentration 200 µM (ketoconazole 20 µM), ∞ = the best fitted model was the constant model): > 200 µM
72 | Chlorpyrifos oxon | 0.9288 | 
